Measurements from US20020137929A1, “1 - (3-heterocyclylphenyl) isothiourea, -isourea, -guanidine and -amidine herbicidal agents” (Intellectual Property Department, BASF Aktiengesellschaft, priority 1998, published 2002).

Tests used:
[1] = system: ECHCG (Barnyardgrass); assay: Postemergence herbicidal evaluation; format: in vivo, Echinochloa crus-galli; conditions: postemergence
Method in brief: (§1)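 Visual 0–9 rating versus control (stand, vigor, malformation, size, chlorosis, overall appearance), taken four to five weeks post-spray. Two-week-old seedlings received roughly 0.0156–0.500 kg/ha active in acetone/water (50/50) with 0.5% TWEEN 20 via nozzle at 40 psi.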

[2] = system: SAGPY (Arrowhead (Pygmaea)); assay: Preemergence weed control under flooded paddy conditions; format: in vivo, Sagittaria pygmaea; conditions: rated 3-4 weeks after treatment
Method in brief: (§2)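 Greenhouse paddy assay. Acetone/water (50/50 v/v) solutions dosed into flood water, equivalent to about 0.0313 to 0.500 kg/ha active ingredient, over seeds planted 0.5 cm deep in silt loam. Score: 0-9 visual, based on stand, vigor, malformation, size and chlorosis, 3 to 4 weeks after treatment.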

[3] = system: CASOB (Sicklepod); assay: Postemergence herbicidal evaluation; format: in vivo, Cassia obtusifolia; conditions: postemergence
Method in brief: as §1

[4] = system: GALAP (Galium); assay: Preemergence herbicidal evaluation; format: in vivo, Galium aparine; conditions: rated 4-5 weeks after treatment
Method in brief: (§3)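 Visual 0-9 rating vs control (stand, vigor, malformation, size, chlorosis, overall appearance), scored 4-5 wk after spraying. Seeded soil cups were treated preemergence with compound in aqueous acetone, ~0.0156-0.500 kg/ha equivalent.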

[5] = system: GALAP (Galium); assay: Postemergence herbicidal evaluation; format: in vivo, Galium aparine; conditions: postemergence
Method in brief: as §1

[6] = system: CHEAL (Lambsquarters, Common); assay: Postemergence herbicidal evaluation; format: in vivo, Chenopodium album; conditions: postemergence
Method in brief: as §1

[7] = system: CYPSE (Flatsedge); assay: Preemergence weed control under flooded paddy conditions; format: in vivo, Cyperus serotinus; conditions: rated 3-4 weeks after treatment
Method in brief: as §2

[8] = system: ZEAMX (Corn, Field); assay: Preemergence herbicidal evaluation; format: in vivo, Zea mays; conditions: rated 4-5 weeks after treatment
Method in brief: as §3

[9] = system: AMBEL (Ragweed, Common); assay: Postemergence herbicidal evaluation; format: in vivo, Ambrosia artemisifolia; conditions: postemergence
Method in brief: as §1

[10] = system: GLXMAW (Soybean, Williams); assay: Postemergence herbicidal evaluation; format: in vivo, Glycine max, (L.) Merr. cv Williams; conditions: postemergence
Method in brief: as §1

[11] = system: SETVI (Foxtail, Green); assay: Postemergence herbicidal evaluation; format: in vivo, Setaria viridis; conditions: postemergence
Method in brief: as §1

[12] = system: ORYSAT (Rice, Tebonnet); assay: Postemergence herbicidal evaluation; format: in vivo, Oryza sativa, (L.) Tebonnet; conditions: postemergence
Method in brief: as §1

[13] = system: CASOB (Sicklepod); assay: Preemergence herbicidal evaluation; format: in vivo, Cassia obtusifolia; conditions: rated 4-5 weeks after treatment
Method in brief: as §3

[14] = system: CYPIR (Rice Flatsedge); assay: Preemergence weed control under flooded paddy conditions; format: in vivo, Cyperus iria; conditions: rated 3-4 weeks after treatment
Method in brief: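 Ratings on a 0-9 visual scale cover stand, vigor, malformation, size, chlorosis and overall appearance relative to a control, taken three to four weeks post-treatment. Application was into flood water over freshly sown silt loam at roughly 0.0313 to 0.500 kg/ha.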

[15] = rate 0.0156 kg/ha, rating scale 0-9
[16] = rate 0.0313 kg/ha, rating scale 0-9
[17] = rate 0.0625 kg/ha, rating scale 0-9
[18] = rate 0.1250 kg/ha, rating scale 0-9
[19] = rate 0.2500 kg/ha, rating scale 0-9

Structure (SMILES): Cn1c(C(F)(F)F)cc(=O)n(-c2cc(N=C3SCC(=O)N3Cc3ccc(S(N)(=O)=O)cc3)c(Cl)cc2F)c1=O [Compound 135, Alpha-{2-{{2-chloro-5-[3,6-dihydro-3-methyl-2,6-dioxo-4-(trifluoromethyl)-1(2H)-pyrimidinyl]-4-fluorophenyl}imino}-4-oxo-3-thiazolidinyl}-p-toluenesulfonamide]
- herbicidal rating ECHCG ([1]; rate 0.0156 kg/ha): 1.0
- herbicidal rating ECHCG ([1]; rate 0.0313 kg/ha): 2.0
- herbicidal rating ECHCG ([1]; rate 0.0625 kg/ha): 2.0
- herbicidal effect rating, SAGPY ([2]; 0.0313 kg/ha): 0.0
- herbicidal effect rating, SAGPY ([2]; 0.0625 kg/ha): 3.0
- herbicidal effect rating, SAGPY ([2]; 0.1250 kg/ha): 5.0
- herbicidal effect rating, SAGPY ([2]; 0.2500 kg/ha): 6.0
- herbicidal rating CASOB ([3]; rate 0.0156 kg/ha): 2.0
- herbicidal rating CASOB ([3]; rate 0.0313 kg/ha): 4.0
- herbicidal rating CASOB ([3]; rate 0.0625 kg/ha): 4.0
- Preemergence herbicidal rating GALAP [4, 15]: 0.0
- Preemergence herbicidal rating GALAP [4, 16]: 0.0
- Preemergence herbicidal rating GALAP [4, 17]: 0.0
- Preemergence herbicidal rating GALAP [4, 18]: 0.0
- Preemergence herbicidal rating GALAP [4, 19]: 1.0
- herbicidal rating GALAP ([5]; rate 0.0156 kg/ha): 1.0
- herbicidal rating GALAP ([5]; rate 0.0313 kg/ha): 3.0
- herbicidal rating GALAP ([5]; rate 0.0625 kg/ha): 4.0
- herbicidal rating CHEAL ([6]; rate 0.0156 kg/ha): 4.0
- herbicidal rating CHEAL ([6]; rate 0.0313 kg/ha): 7.0
- herbicidal rating CHEAL ([6]; rate 0.0625 kg/ha): 9.0
- herbicidal effect rating, CYPSE ([7]; 0.1250 kg/ha): 0.0
- herbicidal effect rating, CYPSE ([7]; 0.2500 kg/ha): 0.0
- Preemergence herbicidal rating ZEAMX [8, 15]: 1.0
- Preemergence herbicidal rating ZEAMX [8, 16]: 1.0
- Preemergence herbicidal rating ZEAMX [8, 17]: 0.0
- Preemergence herbicidal rating ZEAMX [8, 18]: 2.0
- Preemergence herbicidal rating ZEAMX [8, 19]: 1.0
- herbicidal rating AMBEL ([9]; rate 0.0156 kg/ha): 9.0
- herbicidal rating AMBEL ([9]; rate 0.0313 kg/ha): 9.0
- herbicidal rating AMBEL ([9]; rate 0.0625 kg/ha): 9.0
- herbicidal rating GLXMAW ([10]; rate 0.0156 kg/ha): 5.0
- herbicidal rating GLXMAW ([10]; rate 0.0313 kg/ha): 5.0
- herbicidal rating GLXMAW ([10]; rate 0.0625 kg/ha): 5.0
- herbicidal rating SETVI ([11]; rate 0.0156 kg/ha): 2.0
- herbicidal rating SETVI ([11]; rate 0.0313 kg/ha): 4.0
- herbicidal rating SETVI ([11]; rate 0.0625 kg/ha): 6.0
- herbicidal rating ORYSAT ([12]; rate 0.0156 kg/ha): 2.0
- herbicidal rating ORYSAT ([12]; rate 0.0313 kg/ha): 2.0
- herbicidal rating ORYSAT ([12]; rate 0.0625 kg/ha): 2.5
- Preemergence herbicidal rating CASOB [13, 15]: 0.0
- Preemergence herbicidal rating CASOB [13, 16]: 1.0
- Preemergence herbicidal rating CASOB [13, 17]: 1.0
- Preemergence herbicidal rating CASOB [13, 18]: 1.0
- Preemergence herbicidal rating CASOB [13, 19]: 5.0
- herbicidal effect rating, CYPIR ([14]; 0.0313 kg/ha): 5.0
- herbicidal effect rating, CYPIR ([14]; 0.0625 kg/ha): 6.0
- herbicidal effect rating, CYPIR ([14]; 0.1250 kg/ha): 7.0
- herbicidal effect rating, CYPIR ([14]; 0.2500 kg/ha): 7.0

Structure (SMILES): Cn1c(C(F)(F)F)cc(=O)n(-c2cc(N=C3SCC(=O)N3Cc3ccco3)c(Cl)cc2F)c1=O [Compound 122, 3-{4-Chloro-2-fluoro-5-[(3-furfuryl-4-oxo-2-thiazolidinylidene)amino]phenyl}-1-methyl-6-(trifluoromethyl)-2,4(1H,3H)-pyrimidinedione]
- herbicidal rating ECHCG ([1]; rate 0.0156 kg/ha): 2.0
- herbicidal rating ECHCG ([1]; rate 0.0313 kg/ha): 3.0
- herbicidal rating ECHCG ([1]; rate 0.0625 kg/ha): 4.0
- herbicidal rating ECHCG ([1]; rate 0.1250 kg/ha): 5.0
- herbicidal effect rating, SAGPY ([2]; 0.0313 kg/ha): 2.0
- herbicidal effect rating, SAGPY ([2]; 0.0625 kg/ha): 3.0
- herbicidal effect rating, SAGPY ([2]; 0.1250 kg/ha): 5.0
- herbicidal effect rating, SAGPY ([2]; 0.2500 kg/ha): 6.0
- herbicidal rating CASOB ([3]; rate 0.0156 kg/ha): 1.0
- herbicidal rating CASOB ([3]; rate 0.0313 kg/ha): 3.0
- herbicidal rating CASOB ([3]; rate 0.0625 kg/ha): 3.0
- herbicidal rating CASOB ([3]; rate 0.1250 kg/ha): 4.0
- Preemergence herbicidal rating GALAP ([4]; rate 0.0156 kg/ha): 3.0
- Preemergence herbicidal rating GALAP ([4]; rate 0.0313 kg/ha): 2.0
- Preemergence herbicidal rating GALAP ([4]; rate 0.0625 kg/ha): 3.0
- Preemergence herbicidal rating GALAP ([4]; rate 0.1250 kg/ha): 4.0
- Preemergence herbicidal rating GALAP ([4]; rate 0.2500 kg/ha): 4.0
- Preemergence herbicidal rating GALAP ([4]; rate 0.5000 kg/ha): 6.0
- herbicidal rating GALAP ([5]; rate 0.0156 kg/ha): 2.0
- herbicidal rating GALAP ([5]; rate 0.0313 kg/ha): 2.0
- herbicidal rating GALAP ([5]; rate 0.0625 kg/ha): 4.0
- herbicidal rating GALAP ([5]; rate 0.1250 kg/ha): 6.0
- herbicidal rating CHEAL ([6]; rate 0.0156 kg/ha): 6.0
- herbicidal rating CHEAL ([6]; rate 0.0313 kg/ha): 9.0
- herbicidal rating CHEAL ([6]; rate 0.0625 kg/ha): 9.0
- herbicidal rating CHEAL ([6]; rate 0.1250 kg/ha): 9.0
- herbicidal effect rating, CYPSE ([7]; 0.2500 kg/ha): 3.0
- Preemergence herbicidal rating ZEAMX ([8]; rate 0.0156 kg/ha): 0.0
- Preemergence herbicidal rating ZEAMX ([8]; rate 0.0313 kg/ha): 0.0
- Preemergence herbicidal rating ZEAMX ([8]; rate 0.0625 kg/ha): 0.0
- Preemergence herbicidal rating ZEAMX ([8]; rate 0.1250 kg/ha): 0.0
- Preemergence herbicidal rating ZEAMX ([8]; rate 0.2500 kg/ha): 0.0
- Preemergence herbicidal rating ZEAMX ([8]; rate 0.5000 kg/ha): 1.0
- herbicidal rating AMBEL ([9]; rate 0.0156 kg/ha): 7.0
- herbicidal rating AMBEL ([9]; rate 0.0313 kg/ha): 9.0
- herbicidal rating AMBEL ([9]; rate 0.0625 kg/ha): 9.0
- herbicidal rating AMBEL ([9]; rate 0.1250 kg/ha): 9.0
- herbicidal rating GLXMAW ([10]; rate 0.0156 kg/ha): 5.5
- herbicidal rating GLXMAW ([10]; rate 0.0313 kg/ha): 6.5
- herbicidal rating GLXMAW ([10]; rate 0.0625 kg/ha): 6.5
- herbicidal rating GLXMAW ([10]; rate 0.1250 kg/ha): 6.5
- herbicidal rating SETVI ([11]; rate 0.0156 kg/ha): 6.0
- herbicidal rating SETVI ([11]; rate 0.0313 kg/ha): 7.0
- herbicidal rating SETVI ([11]; rate 0.0625 kg/ha): 9.0
- herbicidal rating SETVI ([11]; rate 0.1250 kg/ha): 9.0
- herbicidal rating ORYSAT ([12]; rate 0.0156 kg/ha): 3.5
- herbicidal rating ORYSAT ([12]; rate 0.0313 kg/ha): 3.5
- herbicidal rating ORYSAT ([12]; rate 0.0625 kg/ha): 3.5
- herbicidal rating ORYSAT ([12]; rate 0.1250 kg/ha): 5.0
- Preemergence herbicidal rating CASOB ([13]; rate 0.0156 kg/ha): 0.0
- Preemergence herbicidal rating CASOB ([13]; rate 0.0313 kg/ha): 0.0
- Preemergence herbicidal rating CASOB ([13]; rate 0.0625 kg/ha): 0.0
- Preemergence herbicidal rating CASOB ([13]; rate 0.1250 kg/ha): 0.0
- Preemergence herbicidal rating CASOB ([13]; rate 0.2500 kg/ha): 0.0
- Preemergence herbicidal rating CASOB ([13]; rate 0.5000 kg/ha): 3.0
- herbicidal effect rating, CYPIR ([14]; 0.0313 kg/ha): 4.0
- herbicidal effect rating, CYPIR ([14]; 0.0625 kg/ha): 7.0
- herbicidal effect rating, CYPIR ([14]; 0.1250 kg/ha): 7.0
- herbicidal effect rating, CYPIR ([14]; 0.2500 kg/ha): 8.0
